Columns and labels:
[1] = target: T1, thrombopoietin receptor (human TPOR) (Homo sapiens, UniProt P40238); test: STAT5 phosphorylation Western blot in parental vs human TPOR-expressing murine cells, […]; type: cell-based
T1 construct: gene MPL; MPL open reading frame (NM_005373.2) in pCMV-3Tag-3a, expressed in BaF3 and 32D cells
T1 sequence (P40238 26-635): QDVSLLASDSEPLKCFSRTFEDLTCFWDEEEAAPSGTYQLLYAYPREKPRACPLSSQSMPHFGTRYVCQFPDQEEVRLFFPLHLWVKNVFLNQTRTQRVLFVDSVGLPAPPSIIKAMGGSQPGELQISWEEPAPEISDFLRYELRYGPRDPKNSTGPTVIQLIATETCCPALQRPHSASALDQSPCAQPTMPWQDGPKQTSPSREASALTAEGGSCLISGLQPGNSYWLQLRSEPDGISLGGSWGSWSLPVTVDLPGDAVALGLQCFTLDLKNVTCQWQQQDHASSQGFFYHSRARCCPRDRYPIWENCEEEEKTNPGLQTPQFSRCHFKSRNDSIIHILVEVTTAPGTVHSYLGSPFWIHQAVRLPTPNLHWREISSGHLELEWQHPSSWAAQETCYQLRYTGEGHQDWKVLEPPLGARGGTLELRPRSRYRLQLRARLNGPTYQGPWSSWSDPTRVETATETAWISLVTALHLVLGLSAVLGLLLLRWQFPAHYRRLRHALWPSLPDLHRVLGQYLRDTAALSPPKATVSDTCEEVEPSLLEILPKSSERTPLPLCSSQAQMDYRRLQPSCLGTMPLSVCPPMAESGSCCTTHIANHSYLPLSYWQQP

[2] = target: T2, TET3 (Homo sapiens, UniProt O43151); test: 5hmC ELISA with recombinant protein; type: biochemical
T2 construct: recombinant catalytic domain (BPS Bioscience, 50163)
T2 sequence (O43151 850-1795 limits assumed): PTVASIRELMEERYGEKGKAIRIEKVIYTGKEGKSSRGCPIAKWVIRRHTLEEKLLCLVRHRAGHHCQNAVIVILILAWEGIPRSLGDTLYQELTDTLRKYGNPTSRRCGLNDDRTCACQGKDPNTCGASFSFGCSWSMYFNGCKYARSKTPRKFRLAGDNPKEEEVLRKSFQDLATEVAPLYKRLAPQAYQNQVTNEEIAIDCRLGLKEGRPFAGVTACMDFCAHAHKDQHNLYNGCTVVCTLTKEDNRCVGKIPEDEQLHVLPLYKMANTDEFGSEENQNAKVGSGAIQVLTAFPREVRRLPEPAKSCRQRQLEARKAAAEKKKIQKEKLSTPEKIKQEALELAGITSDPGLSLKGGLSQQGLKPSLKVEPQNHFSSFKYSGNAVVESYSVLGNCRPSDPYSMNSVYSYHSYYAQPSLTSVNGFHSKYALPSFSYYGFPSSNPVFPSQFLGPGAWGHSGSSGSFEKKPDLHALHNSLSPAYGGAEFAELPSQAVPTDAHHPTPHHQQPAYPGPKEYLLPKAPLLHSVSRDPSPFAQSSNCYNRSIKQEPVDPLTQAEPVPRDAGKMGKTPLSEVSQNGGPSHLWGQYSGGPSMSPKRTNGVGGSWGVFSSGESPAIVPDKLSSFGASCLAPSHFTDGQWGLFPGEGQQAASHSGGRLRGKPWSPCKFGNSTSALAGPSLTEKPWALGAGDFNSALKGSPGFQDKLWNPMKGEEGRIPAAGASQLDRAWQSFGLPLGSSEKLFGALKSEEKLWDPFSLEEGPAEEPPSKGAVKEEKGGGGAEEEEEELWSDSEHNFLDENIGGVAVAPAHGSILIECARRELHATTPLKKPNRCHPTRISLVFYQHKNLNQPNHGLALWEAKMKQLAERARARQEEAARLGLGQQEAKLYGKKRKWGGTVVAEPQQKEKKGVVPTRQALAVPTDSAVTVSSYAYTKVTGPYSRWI

[3] = target: T3, TET1 (Homo sapiens, UniProt Q8NFU7); test: 5hmC ELISA with recombinant protein; type: biochemical
T3 construct: recombinant catalytic domain (Epigentek, E12002-1)
T3 sequence (Q8NFU7 1418-2136 limits assumed): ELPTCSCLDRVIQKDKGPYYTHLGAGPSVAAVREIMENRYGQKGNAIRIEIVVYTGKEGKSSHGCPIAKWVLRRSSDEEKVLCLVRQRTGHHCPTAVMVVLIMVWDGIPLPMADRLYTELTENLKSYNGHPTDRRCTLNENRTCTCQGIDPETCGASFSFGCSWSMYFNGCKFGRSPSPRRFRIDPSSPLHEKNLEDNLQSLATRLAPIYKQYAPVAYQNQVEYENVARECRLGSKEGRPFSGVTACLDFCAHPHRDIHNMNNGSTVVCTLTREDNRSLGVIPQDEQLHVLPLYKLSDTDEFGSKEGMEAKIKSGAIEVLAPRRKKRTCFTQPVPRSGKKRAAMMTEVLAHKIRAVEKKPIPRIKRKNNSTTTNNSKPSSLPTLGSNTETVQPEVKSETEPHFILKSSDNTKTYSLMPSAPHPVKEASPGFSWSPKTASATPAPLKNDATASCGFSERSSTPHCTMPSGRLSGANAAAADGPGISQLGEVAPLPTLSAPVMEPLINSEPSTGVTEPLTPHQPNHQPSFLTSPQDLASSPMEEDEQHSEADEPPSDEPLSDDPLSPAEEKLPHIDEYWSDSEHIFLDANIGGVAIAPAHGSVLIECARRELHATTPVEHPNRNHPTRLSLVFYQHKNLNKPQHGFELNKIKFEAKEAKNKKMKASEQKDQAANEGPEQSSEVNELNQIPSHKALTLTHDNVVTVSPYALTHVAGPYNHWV

Row | IC50 [2] | IC50 [3] | Compound | STAT5 phosphorylation Western blot in parental vs human TPOR-expressing murine c [1]
1 | – | – | O=C(Nc1nc(-c2cc(Cl)cs2)c(N2CCN(C3CCCCC3)CC2)s1)c1cnc(N2CCC(C(=O)O)CC2)c(Cl)c1 [Apag, avatrombopag] | a chemically unrelated non-peptidyl TPOR agonist) all activated the JAK/STAT pathway to the same extent in these cells
2 | 1.8 ± 0.1 µM | 1 ± 0.1 µM | CC1=NN(c2ccc(C)c(C)c2)C(=O)/C1=N\Nc1cccc(-c2cccc(C(=O)O)c2)c1O [Epag, Eltrombopag] | Reconstitution of human TPOR in murine cells restored STAT5 phosphorylation without any measurable changes in the dioxygenase activity.
